{"source": "paper PMC12525769", "about": "“Structure and quenching of a bundle-shaped phycobilisome” (Science Advances, 2025)", "experiment_in_all_cases": "cryo-EM structure of phycobilisome", "type_in_all_cases": "binding", "key": {"[1]": {"target": "T1, ApcE (Gloeobacter violaceus, UniProt Q7NL81)", "T1 construct": "native, within isolated GraFix cross-linked phycobilisome; bilin in N-terminal alpha-like domain, in third AP trimer of basal cylinders", "T1 sequence (Q7NL81 1-1155)": "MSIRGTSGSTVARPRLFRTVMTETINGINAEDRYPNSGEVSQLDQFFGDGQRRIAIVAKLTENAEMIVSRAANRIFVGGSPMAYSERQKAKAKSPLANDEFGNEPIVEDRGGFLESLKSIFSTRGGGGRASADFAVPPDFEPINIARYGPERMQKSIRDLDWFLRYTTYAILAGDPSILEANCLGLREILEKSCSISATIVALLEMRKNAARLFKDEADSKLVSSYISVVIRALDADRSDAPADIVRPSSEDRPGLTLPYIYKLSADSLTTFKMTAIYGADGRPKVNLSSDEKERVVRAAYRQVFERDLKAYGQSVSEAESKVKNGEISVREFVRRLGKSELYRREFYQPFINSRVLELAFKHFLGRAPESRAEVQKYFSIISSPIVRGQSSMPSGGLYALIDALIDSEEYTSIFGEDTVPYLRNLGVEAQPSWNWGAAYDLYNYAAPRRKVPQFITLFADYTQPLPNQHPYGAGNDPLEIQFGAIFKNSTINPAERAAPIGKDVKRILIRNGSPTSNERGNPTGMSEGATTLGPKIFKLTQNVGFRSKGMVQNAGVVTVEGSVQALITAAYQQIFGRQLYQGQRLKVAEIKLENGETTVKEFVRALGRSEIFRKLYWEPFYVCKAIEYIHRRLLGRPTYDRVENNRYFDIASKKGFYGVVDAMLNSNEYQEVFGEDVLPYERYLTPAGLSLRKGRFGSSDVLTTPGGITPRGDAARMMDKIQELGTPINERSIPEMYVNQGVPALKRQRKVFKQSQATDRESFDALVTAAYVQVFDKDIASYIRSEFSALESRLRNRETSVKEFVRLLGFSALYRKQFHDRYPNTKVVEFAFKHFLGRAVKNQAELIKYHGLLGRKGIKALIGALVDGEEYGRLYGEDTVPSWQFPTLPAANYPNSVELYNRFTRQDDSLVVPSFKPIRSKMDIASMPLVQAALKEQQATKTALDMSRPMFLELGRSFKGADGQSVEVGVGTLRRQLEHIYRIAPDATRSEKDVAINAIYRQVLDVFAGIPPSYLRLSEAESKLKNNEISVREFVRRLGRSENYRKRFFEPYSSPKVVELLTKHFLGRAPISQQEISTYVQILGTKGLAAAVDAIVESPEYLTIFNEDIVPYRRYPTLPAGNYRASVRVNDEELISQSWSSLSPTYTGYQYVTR", "conditions": "covalent; terminal emitter, D ring stacks on Trp162; ring conformation not resolved without restraints"}, "[2]": {"target": "T2, phycocyanin (PC) (Gloeobacter violaceus, UniProt Q7M7C7+Q7M7F7)", "T2 construct": "gene cpcA; native, (αβ)6 hexamers of rods and Rx in isolated GraFix cross-linked phycobilisome", "T2 sequence (Q7M7F7 1-162)": "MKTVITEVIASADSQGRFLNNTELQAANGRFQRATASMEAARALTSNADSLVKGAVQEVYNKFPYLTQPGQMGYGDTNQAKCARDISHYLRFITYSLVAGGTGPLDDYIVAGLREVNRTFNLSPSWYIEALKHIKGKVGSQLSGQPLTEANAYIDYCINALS", "T2 sequence (Q7M7C7 1-172)": "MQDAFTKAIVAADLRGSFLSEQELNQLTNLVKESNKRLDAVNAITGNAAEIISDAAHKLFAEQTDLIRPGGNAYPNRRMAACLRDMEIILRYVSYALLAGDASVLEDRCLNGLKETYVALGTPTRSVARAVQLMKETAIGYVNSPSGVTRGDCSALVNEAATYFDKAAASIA", "conditions": "covalent; one bilin on alpha, two on beta"}, "[3]": {"target": "T3, allophycocyanin (AP) (Gloeobacter violaceus, UniProt Q7NL79+Q7NL80)", "T3 construct": "gene apcA; native, (αβ)3 trimers of the pentacylindrical core in isolated GraFix cross-linked phycobilisome", "T3 sequence (Q7NL80 1-161)": "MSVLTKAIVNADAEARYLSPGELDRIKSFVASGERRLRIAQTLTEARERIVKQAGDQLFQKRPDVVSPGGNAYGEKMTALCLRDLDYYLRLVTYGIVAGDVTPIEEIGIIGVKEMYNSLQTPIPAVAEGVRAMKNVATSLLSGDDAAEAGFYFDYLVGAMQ", "T3 sequence (Q7NL79 1-161)": "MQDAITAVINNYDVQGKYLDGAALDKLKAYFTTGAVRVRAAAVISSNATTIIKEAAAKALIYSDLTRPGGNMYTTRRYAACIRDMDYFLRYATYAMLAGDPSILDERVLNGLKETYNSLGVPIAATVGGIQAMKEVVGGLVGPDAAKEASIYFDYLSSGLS", "conditions": "covalent; one bilin on each alpha and beta subunit"}}}
{"smiles": "CC=C1C(=Cc2[nH]c(C=C3N=C(C=C4NC(=O)C(CC)=C4C)C(C)=C3CCC(=O)O)c(CCC(=O)O)c2C)NC(=O)C1C", "note": "(stereo not drawn) [phycocyanobilin]", "values": [{"measurement": "cryo-EM structure of phycobilisome", "setting": "[1]", "value": "resolved in cryo-EM density map, including the terminal emitting bilin in ApcE"}, {"measurement": "cryo-EM structure of phycobilisome", "setting": "[2]", "value": "PCB conformations within PC hexamers in rods and AP hexamers in the core were resolved"}, {"measurement": "cryo-EM structure of phycobilisome", "setting": "[3]", "value": "PCB conformations within PC hexamers in rods and AP hexamers in the core were resolved"}]}
